Where two headings read alike, the source gives them in different places.
Experiments:
[1] = cited from earlier work; for AUC0-24 h / Accumulation ratio AUC0-24 h / Accumulation ratio Cmax / Cmax / Kel / Tmax: inhaled Formulation I
[2] = cited from earlier work; for RB / fu: Simcyp V19 file
CYP3A4 = details: role: inhibitor; unbound Ki, Simcyp V19 file; cited from earlier work
[3] = single inhaled dose of 20 mg of dry powder; cited from earlier work
[4] = Itraconazole subparticle size of milled suspension; type: physicochemical; details: water and polysorbate 80, milled at 1800 rpm for one hour
Method: Particle Size Reduction using Low Energy Wet Milling. One technique for reducing the particle size of the itraconazole was via low energy wet milling (also known as roller milling, or jar milling). Suspensions of the itraconazole were prepared in an anti-solvent, which can be water, or any solvent in which the active agent is not appreciably soluble. Stabilizers, which can be, but are not limited to, non-ionic surfactants or amphiphilic polymers, are then added to the suspension along with milling media, which can be, but are not limited to, spherical with high wear resistance and in the size range from 0.03 to 0.70 millimeters in diameter. The vessels containing the suspensions are then rotated using a jar mill (US Stoneware, East Palestine, OH USA) while taking samples periodically to assess particle size (LA-950, HORIBA, Kyoto, Japan).
Particle Size Reduction using High Energy Wet Milling: Another technique for reducing the particle size of the itraconazole was via high-energy wet milling using a rotor-stator, or agitated media mill. Suspensions of the itraconazole were prepared in an anti-solvent, which can be water, or any solvent in which the active agent is not appreciably soluble. […]

[5] = Day 1, 35 mg inhaled Formulation I QD
[6] = Day 14, 35 mg inhaled Formulation I QD

Row | SMILES | AUC0-24 h, observed mean [1, 5] [ng·h/mL] | Cmax, observed mean [1, 5] [ng/mL] | AUC0-24 h, observed mean [1, 6] [ng·h/mL] | Cmax, observed mean [1, 6] [ng/mL] | AUC0-24 h ([1]; 10 mg) | Accumulation ratio AUC0-24 h ([1]; 10 mg) | Accumulation ratio Cmax ([1]; 10 mg) | Cmax ([1]; 10 mg) | Kel ([1]; 10 mg) [h⁻¹] | Tmax ([1]; 10 mg) [h] | AUC0-24 h ([1]; 20 mg) | Accumulation ratio AUC0-24 h ([1]; 20 mg) | Accumulation ratio Cmax ([1]; 20 mg) | Cmax ([1]; 20 mg) | Kel ([1]; 20 mg) [h⁻¹] | Tmax ([1]; 20 mg) [h] | AUC0-24 h ([1]; 35 mg QD for 14 days) | Accumulation ratio AUC0-24 h ([1]; 35 mg QD for 14 days) | Accumulation ratio Cmax ([1]; 35 mg QD for 14 days) | Cmax ([1]; 35 mg QD for 14 days) | also measured
1 | CCC(C)n1ncn(-c2ccc(N3CCN(c4ccc(OCC5COC(Cn6cncn6)(c6ccc(Cl)cc6Cl)O5)cc4)CC3)cc2)c1=O (centres unmarked) [Itraconazole, itraconazole] | […] | 5.23 | […] | 15.2 | […] | […] | […] | […] | […] | […] | […] | […] | […] | […] | […] | […] | […] | […] | […] | 15.2 (49.3) ng/mL | Kel ([1]; 35 mg QD for 14 days): […]; Tmax ([1]; 35 mg QD for 14 days): […]; RB [2]: […]; fu [2]: […]; Ki, u, ITZ (CYP3A4): […]; lung exposure [3]: lung exposures that would be considered therapeutic; final median particle size (Dv(50)) of the milled suspension [4]: […]
2 | Cc1ncc2n1-c1ccc(Cl)cc1C(c1ccccc1F)=NC2 [Midazolam, midazolam] |  |  |  |  |  |  |  |  |  |  |  |  |  |  |  |  |  |  |  |  | fm ([2]; Simcyp V19 Midazolam File): 0.84
3 | CC(O)C(C)n1ncn(-c2ccc(N3CCN(c4ccc(OCC5COC(Cn6cncn6)(c6ccc(Cl)cc6Cl)O5)cc4)CC3)cc2)c1=O (centres unmarked) [OH-itraconazole] | 38.2 | 2.10 | 168 | 8.68 | 42.4 (26.1) ng h/mL | 3.8 | 3.5 | 2.25 (25.3) ng/mL | 0.0263 | 6 | 128 (56.1) ng h/mL | 4.4 | 4.2 | 6.43 (54.7) ng/mL | 0.0223 | 6 | 169 (116) ng h/mL | 4.5 | 4.2 | 8.68 (91.0) ng/mL | Kel ([1]; 35 mg QD for 14 days): 0.0248 h⁻¹; Tmax ([1]; 35 mg QD for 14 days): 8 h; RB [2]: 0.58; fu [2]: 0.016; Ki, u, ITZ (CYP3A4): 2.3 nM
